{"source": "paper PMC12833730", "about": "“Discovery of a First‐in‐Class Covalent Allosteric SHP1 Inhibitor with Immunotherapeutic Activity” (Angewandte Chemie (International Ed. in English), 2025)", "key": {"[1]": {"target": "T1, SHP1 (Homo sapiens, UniProt P29350)", "T1 construct": "SHP1, residues 245-543; made in house; host or cells: E. coli BL21(DE3)", "T1 sequence (P29350 245-543)": "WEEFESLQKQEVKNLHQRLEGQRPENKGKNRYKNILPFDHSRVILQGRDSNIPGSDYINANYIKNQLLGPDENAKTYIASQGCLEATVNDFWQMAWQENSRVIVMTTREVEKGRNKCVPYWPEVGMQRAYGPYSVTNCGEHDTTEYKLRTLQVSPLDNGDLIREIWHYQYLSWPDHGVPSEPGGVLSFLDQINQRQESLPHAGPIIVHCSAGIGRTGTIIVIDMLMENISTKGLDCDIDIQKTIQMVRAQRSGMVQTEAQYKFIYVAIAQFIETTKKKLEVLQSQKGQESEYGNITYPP", "assay": "Vanadate protection jump-dilution experiment", "assay_type": "biochemical", "settings": "500 µM sodium orthovanadate, 30 min", "description": "To further understand the mode of M029 action and ascertain whether M029 binds the SHP1 active site or a yet undefined novel site in SHP1, we performed a vanadate (VO4 ^3−) protection experiment. Vanadate is a reversible and competitive PTP inhibitor,^[ [76], [77] ^] and thus excessive vanadate would be expected to fully occupy the PTP active site and prevent covalent modifications of residues within the active site pocket. In this assay, SHP1 was co‐incubated with 30 µM M029 and 500 µM sodium orthovanadate or vehicle control for 30 min. The SHP1‐inhibitor complex was then rapidly diluted 100‐fold into a buffered solution containing 10 mM pNPP, and immediately, the absorbance at 405 nm was monitored over time to determine the remaining phosphatase activity."}, "[2]": {"target": "T1, SHP1", "assay": "IC50 after 10-min/60-min preincubation, DiFMUP phosphatase assay", "assay_type": "biochemical", "settings": "negative control analogs of M029", "text": "The PTP‐catalyzed reaction involves a nucleophilic attack by the conserved active site Cys side chain on the phosphorus atom of phosphotyrosine in the substrate.^[ [53] ^] As such, the PTPs could serve as prime targets for covalent inhibition. Previously described activity‐based probes or covalent ligands for the PTPs are either phosphotyrosine isosteres or thiol‐reactive compounds that covalently modify the active site residues (including the catalytic Cys) and lack sufficient isozyme specificity.^[ [54], [55], [56], [57], [58], [59], [60], [61] ^] Inspired by the resurgence in covalent inhibitors for difficult drug targets, we set out to discover covalent SHP1 inhibitors by screening for electrophilic fragments that bind covalently to SHP1. This strategy is increasingly utilized to identify novel ligands for a target of interest.^[ [47], [62], [63] ^] We assembled a library of 4600 Cys reactive molecules from the Enamine covalent fragment collections containing 49.0% acrylamide, 38.1% chloroacetamide, 5.15% chloromethylketone, 5.20% activated nitrile, 2.10% epoxide, and 0.53% disulfide (Figure S1A). We carried out a high‐throughput biochemical fragment screening of this curated commercially available library against the SHP1 catalytic domain (residues 245–543). Each fragment (500 µM) was incubated with SHP1 (500 nM) for 30 min at room temperature before diluting the reaction 5.5‐fold with 24.45 mM para‐nitrophenyl phosphate (pNPP) to measure the residual PTP activity. This concentration of substrate was chosen to out‐compete any remaining fragment to reduce the inactivation of SHP1 during the enzymatic hydrolysis of pNPP. After a 2‐min incubation at 25 °C, the reaction was quenched by the addition of 5N NaOH, and the production of para‐nitrophenol was determined by absorbance at 405 nm. This assay format afforded a Z’‐factor of 0.70 (Figure S1B), indicating a robust screen to reliably identify hit molecules. To enhance the probability of discovering covalent ligands with inherent preference for SHP1, we also counter‐screened the same library against SHP2, the closest homolog of SHP1, and two other widely studied PTPs, PTP1B and PTPN22 (also called LYP). […] Among these, 31 were repurchased based on their observed preference for SHP1 and structural diversity, 11 of which were confirmed as potential covalent inhibitors for SHP1 based on the time dependency of their half‐maximal inhibition concentration (IC50) values determined with a 10‐min and 60‐min preincubation time, respectively (Table 1).\nTo further confirm the time-dependent inhibition and determine the IC50 of acquired hits, repurchased compounds from Enamine were serially diluted in a 96-well plate, followed by the addition of proteins at 200 nM. After 10-minute and 60-minute preincubation, 2 µL of the mixture was transferred into 100 µM 6,8-Difluoro-4-Methylumbelliferyl Phosphate (DiFMUP, Invitrogen, cat# D6567) at a final volume of 200 µL. The reaction was allowed to proceed for 5 minutes and quenched by the addition of 40 µl of a 160 µM solution of bpV(Phen) (Sigma-Aldrich, cat# SML0889). The fluorescence signal was measured using a CLARIOstar Plus Microplate Spectrophotometer (BMG Labtech) using excitation and emission wavelengths of 340 nm and 450 nm, respectively. Data were fitted using Prism GraphPad 10.1.1."}, "[3]": {"test_system": "IL-2 in Jurkat T cells", "assay": "IL-2 mRNA / production", "assay_type": "cell-based", "settings": "20 µM", "description": "(§1) Supernatants from lysed cells were reduced, treated with iodoacetamide to cap thiol residues, and digested by trypsin for bottom‐up proteomics analysis. […] LCK is the direct substrate of SHP1 and ERK1/2, and PLCγ is the downstream effector protein of LCK‐mediated TCR signaling. […] Statistical analyses were performed with Graphpad Prism software 10.4.2 through the one‐way ANOVA test using Turkey post‐hoc comparison. ****p < 0.0001 was considered significant.\n(§2) To further confirm M029 cellular target engagement, we investigated the effect of M029 on T cell function. SHP1 plays a negative role in T cells, and deletion of SHP1 in T cells lowers the activation threshold and enhances antitumor immunity.^[ [30], [31], [32], [33] ^] Mechanistically, SHP1 attenuates T cell receptor (TCR) signaling via dephosphorylation of the lymphocyte‐specific protein tyrosine kinase LCK.^[ [31], [84], [85], [86] ^] T cell activation leads to increased expression and secretion of interleukin 2 (IL‐2)^[ [87] ^] while the removal of SHP1 in T cells enhances IL‐2 production, cell proliferation, and cytolysis capacity.^[ [30], [32] ^] Accordingly, we sought to assess the impact of targeting SHP1 with M029 on TCR‐LCK signaling and T cell activation. […] M029 also dose‐dependently promoted IL‐2 production (Figure 4c). […] These findings corroborate that the observed increase in LCK phosphorylation and its downstream signaling indeed resulted from SHP1 inhibition by M029."}, "[4]": {"test_system": "LCK, PLCγ and ERK1/2 phosphorylation in Jurkat T cells", "assay": "TCR-LCK signaling immunoblot", "assay_type": "cell-based", "settings": "20 µM", "description": "as §1, §2\nImmunoblotting: Cultured cells were lysed with ice-cold lysis buffer (50 mM Tris, pH 8.0, 150 mM NaCl, 10% Glycerol, 1% Triton-X-100) supplied with phosphatase inhibitor (Bimake) and protease inhibitor mixture (Roche Applied Science). Equal amounts of protein were resolved by SDS-PAGE, transferred to a nitrocellulose membrane, and subjected to immunoblotting. […]"}}, "data": [{"compound": "[Na+].[Na+].[Na+].[O]=[V]([O-])([O-])[O-]", "note": "[sodium orthovanadate, reference compound]", "values": [{"measurement": "SHP1 activity after 100-fold dilution of vanadate complex", "setting": "[1]", "value": "fully recovered activity"}]}, {"compound": "CC(=O)Nc1ccc(S(=O)(=O)Nc2sccc2C#N)cc1", "note": "[M054, N-(4-(N-(3-cyanothiophen-2-yl)sulfamoyl)phenyl)acetamide]", "values": [{"measurement": "SHP1 inhibitory activity (in words)", "setting": "[2]", "value": "loses the ability to inactivate SHP1"}, {"measurement": "IL-2 secretion", "setting": "[3]", "value": "neither impacted"}, {"measurement": "phosphorylation levels of LCK, PLCγ, and ERK1/2", "setting": "[4]", "value": "neither impacted"}]}, {"compound": "O=C(CCl)Nc1ccccc1", "note": "[PhClAc, reference compound]", "values": [{"measurement": "SHP1 inhibitory activity (in words)", "setting": "[2]", "value": "inactive against SHP1"}, {"measurement": "IL-2 secretion", "setting": "[3]", "value": "neither impacted"}, {"measurement": "phosphorylation levels of LCK, PLCγ, and ERK1/2", "setting": "[4]", "value": "neither impacted"}]}]}
